{"source": "ChEMBL document CHEMBL5154863", "about": "“Design and synthesis of quinolinium-based derivatives targeting FtsZ for antibacterial evaluation and mechanistic study” (Eur J Med Chem, 2022)", "key": {"Enterococcus faecium [1]": {"tested_on": "Enterococcus faecium", "experiment": "Antibacterial activity against vancomycin resistant Enterococcus faecium ATCC 700221 assessed as inhibition of bacterial growth incubated for 20 to 24 hrs by broth micro dilution method", "format": "functional", "conditions": "time 20-24 hrs"}, "Bacillus subtilis [2]": {"tested_on": "Bacillus subtilis", "experiment": "Bactericidal activity against Bacillus subtilis CMCC (B) 63501 assessed as inhibition of bacterial growth incubated for 24 hrs by resazurin dye based microtiter plate assay", "format": "functional"}, "Staphylococcus aureus [3]": {"tested_on": "Staphylococcus aureus", "experiment": "Antibacterial activity against vancomycin-intermediate Staphylococcus aureus Mu50 assessed as inhibition of bacterial growth incubated for 20 to 24 hrs by broth micro dilution method", "format": "functional", "conditions": "time 20-24 hrs"}, "Staphylococcus aureus [4]": {"tested_on": "Staphylococcus aureus", "experiment": "Synergistic antibacterial activity against methicillin-resistant Staphylococcus aureus ATCC BAA41 assessed as inhibition of bacterial growth incubated for 24 hrs in presence of methicillin by checker board assay", "format": "functional"}, "Bacillus subtilis [5]": {"tested_on": "Bacillus subtilis", "experiment": "Antibacterial activity against Bacillus subtilis CMCC (B) 63501 assessed as inhibition of bacterial growth incubated for 20 to 24 hrs by broth micro dilution method", "format": "functional", "conditions": "time 20-24 hrs"}, "Escherichia coli": {"tested_on": "Escherichia coli", "experiment": "Antibacterial activity against Escherichia coli ATCC 8739 assessed as inhibition of bacterial growth incubated for 20 to 24 hrs by broth micro dilution method", "format": "functional", "conditions": "time 20-24 hrs"}, "[6]": {"experiment": "Cytotoxicity against mouse L929 cells incubated for 48 hrs by MTT assay", "format": "toxicity, cell-based"}, "Erythrocyte": {"tested_on": "Erythrocyte", "experiment": "Hemolytic activity in Kunming mouse erythrocyte at 1 to 64 ug/ml incubated for 1 hr", "format": "toxicity, cell-based", "conditions": "dose 1-64 µg/ml"}, "Bacillus subtilis [7]": {"tested_on": "Bacillus subtilis", "experiment": "Induction of drug resistance against Bacillus subtilis CMCC (B) 63501 measured after 16 passages", "format": "functional", "conditions": "dose <= 64.0 µg/ml, time 30.0 min"}, "Staphylococcus aureus [8]": {"tested_on": "Staphylococcus aureus", "experiment": "Antibacterial activity against methicillin-resistant Staphylococcus aureus ATCC BAA41 assessed as inhibition of bacterial growth incubated for 24 hrs by checker board assay", "format": "functional"}, "Staphylococcus aureus [9]": {"tested_on": "Staphylococcus aureus", "experiment": "Antibacterial activity against methicillin-resistant Staphylococcus aureus ATCC 33592 assessed as inhibition of bacterial growth incubated for 20 to 24 hrs by broth micro dilution method", "format": "functional", "conditions": "time 20-24 hrs"}, "[10]": {"target": "T1, Cell division protein FtsZ (Staphylococcus aureus) (UniProt P0A031)", "T1 sequence (whole entry)": "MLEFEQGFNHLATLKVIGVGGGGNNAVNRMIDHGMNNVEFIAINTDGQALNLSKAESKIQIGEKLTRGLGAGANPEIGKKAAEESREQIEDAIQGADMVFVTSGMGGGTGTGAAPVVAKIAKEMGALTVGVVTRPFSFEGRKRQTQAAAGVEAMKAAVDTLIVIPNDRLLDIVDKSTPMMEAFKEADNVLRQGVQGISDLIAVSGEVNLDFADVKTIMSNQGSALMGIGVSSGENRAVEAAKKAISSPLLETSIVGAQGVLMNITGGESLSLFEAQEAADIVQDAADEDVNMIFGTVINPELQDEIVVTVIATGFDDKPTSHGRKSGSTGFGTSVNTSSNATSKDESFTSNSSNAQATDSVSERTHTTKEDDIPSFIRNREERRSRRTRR", "experiment": "Induction of Staphylococcus aureus FtsZ polymerization expressed in Escherichia coli BL21 (DE3) assessed as increase in absorbance at 2 to 8 ug/ml in presence of GTP by microplate reader method", "conditions": "dose 2-8 µg/ml, DDE = dose-dependent effect"}, "Staphylococcus aureus [11]": {"tested_on": "Staphylococcus aureus", "experiment": "Antibacterial activity against Staphylococcus aureus ATCC 29213 infected in L929 cells assessed as inhibition of bacterial growth incubated for 20 to 24 hrs by broth micro dilution method", "format": "functional", "conditions": "time 20-24 hrs"}, "Staphylococcus aureus [12]": {"tested_on": "Staphylococcus aureus", "experiment": "Antibacterial activity against methicillin-resistant Staphylococcus aureus ATCC BAA41 assessed as fractional inhibitory concentration index incubated for 24 hrs by checker board assay", "format": "functional"}, "[13]": {"target": "T2, Cell division protein FtsZ (Staphylococcus aureus, UniProt P0A031)", "T2 sequence (P0A031 whole entry)": "T1 sequence (whole entry)", "experiment": "Binding affinity to Staphylococcus aureus FtsZ assessed as dissociation constant by isothermal titration calorimetry"}, "Enterococcus faecium [14]": {"tested_on": "Enterococcus faecium", "experiment": "Antibacterial activity against Enterococcus faecium ATCC 49624 assessed as inhibition of bacterial growth incubated for 20 to 24 hrs by broth micro dilution method", "format": "functional", "conditions": "time 20-24 hrs"}, "[15]": {"target": "T1, Cell division protein FtsZ (Staphylococcus aureus)", "experiment": "Binding affinity to Staphylococcus aureus FtsZ assessed as decrease in beta turn structure at 8 ug/ml incubated for 30 mins by circular dichroism method (reference value: 17.4 %)", "parameters": "scale not given: the % may be the effect or the level left", "conditions": "dose 8.0 µg/ml"}, "Staphylococcus aureus [16]": {"tested_on": "Staphylococcus aureus", "experiment": "Antibacterial activity against methicillin-resistant Staphylococcus aureus ATCC BAA-1720 assessed as inhibition of bacterial growth incubated for 20 to 24 hrs by broth micro dilution method", "format": "functional", "conditions": "time 20-24 hrs"}, "Acinetobacter baumannii": {"tested_on": "Acinetobacter baumannii", "experiment": "Antibacterial activity against multi-drug resistant Acinetobacter baumannii ATCC 19606 assessed as inhibition of bacterial growth incubated for 20 to 24 hrs by broth micro dilution method", "format": "functional", "conditions": "time 20-24 hrs"}, "[17]": {"target": "T1, Cell division protein FtsZ (Staphylococcus aureus)", "experiment": "Induction of Staphylococcus aureus FtsZ polymerization expressed in Escherichia coli BL21 (DE3) assessed as increase in absorbance at 2 to 8 ug/ml by microplate reader method", "conditions": "dose 2-8 µg/ml"}, "[18]": {"experiment": "Cytotoxicity against human HK-2 cells incubated for 48 hrs by MTT assay", "format": "toxicity, cell-based"}, "[19]": {"experiment": "Ratio of MBC for bactericidal activity against Bacillus subtilis CMCC (B) 63501 to MIC for antibacterial activity against Bacillus subtilis CMCC (B) 63501", "format": "functional"}, "[20]": {"experiment": "Ratio of MBC for bactericidal activity against Staphylococcus aureus ATCC 43300 to MIC for antibacterial activity against Staphylococcus aureus ATCC 43300", "format": "functional"}, "[21]": {"target": "T1, Cell division protein FtsZ (Staphylococcus aureus)", "experiment": "Binding affinity to Staphylococcus aureus FtsZ assessed as decrease in random coil structure at 8 ug/ml incubated for 30 mins by circular dichroism method (reference value: 34.5 %)", "parameters": "scale not given: the % may be the effect or the level left", "conditions": "dose 8.0 µg/ml"}, "Staphylococcus aureus [22]": {"tested_on": "Staphylococcus aureus", "experiment": "Antibacterial activity against Staphylococcus aureus ATCC 29213 infected in HK-2 cells assessed as inhibition of bacterial growth incubated for 20 to 24 hrs by broth micro dilution method", "format": "functional", "conditions": "time 20-24 hrs"}, "Staphylococcus aureus [23]": {"tested_on": "Staphylococcus aureus", "experiment": "Antibacterial activity against methicillin-resistant Staphylococcus aureus ATCC 43300 assessed as inhibition of bacterial growth incubated for 20 to 24 hrs by broth micro dilution method", "format": "functional", "conditions": "time 20-24 hrs"}, "Enterococcus faecium [24]": {"tested_on": "Enterococcus faecium", "experiment": "Bactericidal activity against Enterococcus faecium ATCC 700221 assessed as inhibition of bacterial growth incubated for 24 hrs by resazurin dye based microtiter plate assay", "format": "functional"}, "[25]": {"tested_on": "Staphylococcus epidermidis", "experiment": "Antibacterial activity against Staphylococcus epidermidis ATCC 12228 assessed as inhibition of bacterial growth incubated for 20 to 24 hrs by broth micro dilution method", "format": "functional", "conditions": "time 20-24 hrs"}, "Staphylococcus aureus [26]": {"tested_on": "Staphylococcus aureus", "experiment": "Antibacterial activity against Staphylococcus aureus ATCC 29213 assessed reduction in viable bacterial count upto 4 times MIC measured after 8 hrs by time-kill kinetics assay", "format": "functional"}, "Enterococcus faecium [27]": {"tested_on": "Enterococcus faecium", "experiment": "Antibacterial activity against vancomycin-resistant Enterococcus faecium clinical isolate assessed as inhibition of bacterial growth incubated for 20 to 24 hrs by broth micro dilution method", "format": "functional", "conditions": "time 20-24 hrs"}, "Staphylococcus aureus [28]": {"tested_on": "Staphylococcus aureus", "experiment": "Induction of morphological changes in Staphylococcus aureus ATCC 29213 assessed as enlargement of cell size at 0.5 times MIC for 4 hrs by microscopic analysis", "format": "functional, organism-based"}, "[29]": {"experiment": "Ratio of MBC for bactericidal activity against Staphylococcus aureus ATCC 29213 to MIC for antibacterial activity against Staphylococcus aureus ATCC 29213", "format": "functional"}, "Staphylococcus aureus [30]": {"tested_on": "Staphylococcus aureus", "experiment": "Antibacterial activity against Staphylococcus aureus ATCC 29213 assessed as assessed as reduction in viable bacterial count upto 8 times MIC measured after 8 hrs by time-kill kinetics assay", "format": "functional"}, "[31]": {"target": "T1, Cell division protein FtsZ (Staphylococcus aureus)", "experiment": "Binding affinity to Staphylococcus aureus FtsZ assessed as increase in alpha helix structure at 8 ug/ml incubated for 30 mins by circular dichroism method (reference value: 30.5 %)", "conditions": "dose 8.0 µg/ml"}}, "note": "Calls of active or inactive are those of the source. No cut-off for these calls is given here."}
{"compound": "CC1CCN(c2cc(/C=C/c3ccc(N(C)C)cc3)[n+](C)c3ccccc23)CC1.[I-]", "values": [{"measurement": "MIC", "setting": "Enterococcus faecium [1]", "value": 1, "unit": "µg/mL"}, {"measurement": "MBC", "setting": "Bacillus subtilis [2]", "value": 4, "unit": "µg/mL"}, {"measurement": "MIC", "setting": "Staphylococcus aureus [3]", "value": 1, "unit": "µg/mL"}, {"measurement": "MIC", "setting": "Staphylococcus aureus [4]", "value": 2, "unit": "µg/mL"}, {"measurement": "MIC", "setting": "Bacillus subtilis [5]", "value": 4, "unit": "µg/mL"}, {"measurement": "MIC", "setting": "Escherichia coli", "value": 64, "unit": "µg/mL"}, {"measurement": "IC50 at 48 h", "setting": "[6]", "value": 12.8, "unit": "µg/mL"}, {"measurement": "IC5", "setting": "Erythrocyte", "value": 64, "unit": "µg/mL"}, {"measurement": "Activity", "setting": "Bacillus subtilis [7]", "value": "Active"}, {"measurement": "MIC", "setting": "Staphylococcus aureus [8]", "value": 8, "unit": "µg/mL"}, {"measurement": "MIC", "setting": "Staphylococcus aureus [9]", "value": 0.5, "unit": "µg/mL"}, {"measurement": "Activity", "setting": "[10]", "value": "Dde"}, {"measurement": "MIC", "setting": "Staphylococcus aureus [11]", "value": 1, "unit": "µg/mL"}, {"measurement": "fractional inhibitory concentration index (FICI)", "setting": "Staphylococcus aureus [12]", "value": 0.3125}, {"measurement": "Kd", "setting": "[13]", "value": 3.84, "unit": "µM"}, {"measurement": "MIC", "setting": "Enterococcus faecium [14]", "value": 8, "unit": "µg/mL"}, {"measurement": "Activity", "setting": "[15]", "value": 15.5, "unit": "%"}, {"measurement": "MIC", "setting": "Staphylococcus aureus [16]", "value": 1, "unit": "µg/mL"}, {"measurement": "MIC", "setting": "Acinetobacter baumannii", "value": "> 64", "unit": "µg/mL"}, {"measurement": "Activity", "setting": "[17]", "value": "Active"}, {"measurement": "IC50 at 48 h", "setting": "[18]", "value": 9.42, "unit": "µg/mL"}, {"measurement": "Ratio", "setting": "[19]", "value": 1}, {"measurement": "Ratio", "setting": "[20]", "value": ">4"}, {"measurement": "Activity", "setting": "[21]", "value": 28.4, "unit": "%"}, {"measurement": "MIC", "setting": "Staphylococcus aureus [22]", "value": 1, "unit": "µg/mL"}, {"measurement": "MIC", "setting": "Staphylococcus aureus [23]", "value": 1, "unit": "µg/mL"}, {"measurement": "MBC", "setting": "Enterococcus faecium [24]", "value": 4, "unit": "µg/mL"}, {"measurement": "MIC", "setting": "[25]", "value": 0.25, "unit": "µg/mL"}, {"measurement": "Activity", "setting": "Staphylococcus aureus [26]", "value": 1000, "unit": "CFU/ml"}, {"measurement": "MIC", "setting": "Enterococcus faecium [27]", "value": 4, "unit": "µg/mL"}, {"measurement": "Activity", "setting": "Staphylococcus aureus [28]", "value": "Active"}, {"measurement": "Ratio", "setting": "[29]", "value": ">4"}, {"measurement": "Activity", "setting": "Staphylococcus aureus [30]", "value": 1000, "unit": "CFU/ml"}, {"measurement": "Activity", "setting": "[31]", "value": 41, "unit": "%"}]}
